{"source": "patent US11091749B2", "about": "“Deimmunized lysostaphin and methods of use” (TRUSTEES OF DARTMOUTH COLLEGE, priority 2014, dated 2021)", "key": {"[1]": {"tested_on": "S. aureus cells", "assay": "Lytic assay using purified protein (SYTOX kinetic assay)", "type": "cell-based, Staphylococcus aureus", "description": "S. aureus cells were grown either to mid-log or to saturation in tryptic soy broth (TSB) at 37° C. with shaking. The cells were harvested by centrifugation and washed once in phosphate buffered saline (PBS: 2.7 mM KCl, 1.5 mM KH2PO4, 8.9 mM Na2HPO4, 136.9 mM NaCl, pH 7.4). The assay was performed in 96-well, black, clear bottom plates from Greiner Bio-One (Monroe, N.C.). The final (250 μl) reaction was composed of 10 μl of P. pastoris culture supernatant, S. aureus cells at OD600=1.5, and 5 μM SYTOX Green (Thermo Fisher Scientific; Waltham, Mass.), all in PBS. Data were collected using SPECTRAMAX GEMINI Fluorescence Microplate Reader (Molecular Devices; Sunnyvale, Calif.) using an excitation/emission of 504/523 nm, and rates were determined from the slope of the steepest linear portion of the trace. Each assay was performed with 500 ng of commercially-sourced lysostaphin (ssLys) as an internal control.\nThe activity of purified lysostaphin variants was examined using the SYTOX kinetic assay as previously described in Chapter 2, Section 3.2.6. 200 ng of purified enzyme (instead of culture supernatant) was used in each reaction."}, "[2]": {"tested_on": "S. aureus 6445", "assay": "MIC assay", "type": "cell-based, Staphylococcus aureus", "conditions": "biological duplicates"}, "[3]": {"tested_on": "MRSA strain USA400", "assay": "In vivo efficacy of F11, intraperitoneal MRSA challenge", "set-up": "species or system C57BL/6 mice", "conditions": "100 μg single bolus i.v. 1 h after 2×10^8 MRSA i.p.", "description": "Mice were challenged with an intraperitoneal injection of 2×10^8 MRSA strain USA400, and 1 hour later the mice were treated with 100 μg wild-type LST, F11 or PBS. The percent survival is shown.\nThe in vivo efficacy of the F11 variant was further analyzed in C57BL/6 mice. Mice were challenged with an intraperitoneal injection of 2×10^8 MRSA strain USA400, and 1 hour later the mice were treated with 100 μg wild-type LST, F11 or PBS, administered as a single bolus intravenous injection. The survival rate for both protein treatments was 1/3. The 100 μg dosage was selected because wild-type LST is known to be only partially efficacious at this dose."}}}
{"substance": "Wild-Type: wild-type lysostaphin (SEQ ID NO:49) produced in P. pastoris; aglycosylated Ser126Pro backbone in the design studies [reference compound]", "values": [{"measurement": "% Wild-Type Activity", "setting": "[1]; 200 ng purified enzyme", "value": 100, "unit": "%"}, {"measurement": "% WT Lytic Rate", "setting": "[1]; biological duplicates", "value": "100 ± 30", "unit": "%"}, {"measurement": "MIC Strain 6445", "setting": "[2]", "value": 0.03, "unit": "µg/mL"}, {"measurement": "survival rate", "setting": "[3]", "value": "1/3"}]}
